# Tests used:
# [1] = target: T1, Toll-like receptor 7 (Homo sapiens) (UniProt Q9NYK1); assay: Agonist activity at human TLR7 expressed in HEK293 cells after 6 hrs by NFkappaB-luciferase reporter gene assay; format: cell-based
# T1 sequence (whole entry): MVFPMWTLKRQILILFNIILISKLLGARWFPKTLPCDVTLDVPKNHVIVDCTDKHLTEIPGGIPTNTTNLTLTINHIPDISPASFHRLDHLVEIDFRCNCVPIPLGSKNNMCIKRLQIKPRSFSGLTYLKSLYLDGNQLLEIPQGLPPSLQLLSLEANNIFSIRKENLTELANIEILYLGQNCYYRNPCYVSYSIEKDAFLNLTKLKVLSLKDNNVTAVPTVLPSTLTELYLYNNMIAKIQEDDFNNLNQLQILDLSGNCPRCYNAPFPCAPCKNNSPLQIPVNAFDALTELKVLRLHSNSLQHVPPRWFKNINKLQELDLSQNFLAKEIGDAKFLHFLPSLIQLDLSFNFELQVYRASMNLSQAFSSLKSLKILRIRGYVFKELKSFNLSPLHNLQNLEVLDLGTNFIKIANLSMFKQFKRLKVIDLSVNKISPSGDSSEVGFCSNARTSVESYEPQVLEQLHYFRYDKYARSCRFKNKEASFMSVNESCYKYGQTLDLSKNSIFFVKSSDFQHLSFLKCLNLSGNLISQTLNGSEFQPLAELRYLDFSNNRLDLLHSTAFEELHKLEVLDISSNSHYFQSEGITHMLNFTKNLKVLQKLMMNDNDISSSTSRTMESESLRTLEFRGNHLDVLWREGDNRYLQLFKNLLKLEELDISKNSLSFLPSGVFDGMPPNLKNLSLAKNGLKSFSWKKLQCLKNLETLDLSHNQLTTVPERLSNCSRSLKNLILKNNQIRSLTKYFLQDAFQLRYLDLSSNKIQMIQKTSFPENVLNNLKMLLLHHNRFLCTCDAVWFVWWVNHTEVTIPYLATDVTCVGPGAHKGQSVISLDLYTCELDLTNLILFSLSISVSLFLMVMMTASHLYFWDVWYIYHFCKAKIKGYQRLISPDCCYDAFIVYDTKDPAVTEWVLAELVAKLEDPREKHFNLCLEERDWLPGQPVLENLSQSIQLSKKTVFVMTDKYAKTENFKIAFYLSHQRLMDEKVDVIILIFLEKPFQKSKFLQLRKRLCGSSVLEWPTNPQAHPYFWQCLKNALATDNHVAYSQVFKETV
# [2] = target: T1, Toll-like receptor 7 (Homo sapiens); assay: Agonist activity at TLR7 in human PBMC assessed as suppression of HCV replicon replication in human HuH7 luc/neo cells harboring RNA encoding bicistronic expression construct comprising wild type HCV type 1b NS3-NS5B regions exposed to conditioned media from compound treated PBMCs after 24 hrs by luciferase reporter gene assay; format: cell-based
# [3] = target: Voltage-gated inwardly rectifying potassium channel KCNH2 (Homo sapiens, UniProt Q12809); assay: Displacement of 3H-dofetilide from human ERG
# [4] = Drug metabolism in human liver microsomes at 1 uM after 15 mins; format: ADME, microsome; conditions: read-out: Drug metabolism
# [5] = Tmax in C57BL/6 mouse plasma at 5 mg/kg, po; format: ADME, organism-based
# [6] = Cmax in C57BL/6 mouse plasma at 5 mg/kg, po; format: ADME, organism-based; parameters: dose 5 mg/kg, route oral
# [7] = Cmax in C57BL/6 mouse liver at 5 mg/kg, po; format: ADME, organism-based; parameters: dose 5 mg/kg, route oral
# [8] = target: Cytochrome P450 3A4 (Homo sapiens, UniProt P08684); assay: Inhibition of CYP3A4 (unknown origin); format: ADME
# [9] = target: T2, Cytochrome P450 2C8 (Homo sapiens, UniProt P10632); assay: Inhibition of CYP2C8 (unknown origin); format: ADME
# T2 sequence (P10632 whole entry): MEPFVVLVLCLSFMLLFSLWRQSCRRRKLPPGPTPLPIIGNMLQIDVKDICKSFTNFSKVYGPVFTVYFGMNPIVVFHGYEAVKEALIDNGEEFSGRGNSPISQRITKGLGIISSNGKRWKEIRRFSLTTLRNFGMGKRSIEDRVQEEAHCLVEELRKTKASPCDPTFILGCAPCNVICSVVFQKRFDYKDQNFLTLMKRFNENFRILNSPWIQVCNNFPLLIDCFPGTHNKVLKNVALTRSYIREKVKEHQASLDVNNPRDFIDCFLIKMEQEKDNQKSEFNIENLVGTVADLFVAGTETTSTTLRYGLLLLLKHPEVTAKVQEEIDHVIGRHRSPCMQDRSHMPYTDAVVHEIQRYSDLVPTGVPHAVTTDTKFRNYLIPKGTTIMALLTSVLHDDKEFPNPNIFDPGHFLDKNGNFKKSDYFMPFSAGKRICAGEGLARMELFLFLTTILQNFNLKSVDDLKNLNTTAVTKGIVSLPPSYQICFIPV
# [10] = target: Cytochrome P450 2C9 (Homo sapiens, UniProt P11712); assay: Inhibition of CYP2C9 (unknown origin); format: ADME
# [11] = target: Cytochrome P450 2D6 (Homo sapiens, UniProt P10635); assay: Inhibition of CYP2D6 (unknown origin); format: ADME
# [12] = target: Cytochrome P450 2C19 (Homo sapiens, UniProt P33261); assay: Inhibition of CYP2C19 (unknown origin); format: ADME
# [13] = tested on: Mus musculus; assay: Induction of innate immune response in C57BL/6 mouse assessed as IFNalpha Cmax in liver at 5 mg/kg, po; format: functional, organism-based; parameters: dose 5 mg/kg
# [14] = tested on: Mus musculus; assay: Induction of innate immune response in C57BL/6 mouse assessed as IP-10 Cmax in liver at 5 mg/kg, po; format: functional, organism-based; parameters: dose 5 mg/kg
# [15] = target: Dopamine receptor (Homo sapiens) (UniProt P14416+P35462+P21918+P21917+P21728); assay: Binding affinity to dopamine receptor (unknown origin); format: protein assay
# Chain of Cytochrome P450 2C9 (P11712 whole entry): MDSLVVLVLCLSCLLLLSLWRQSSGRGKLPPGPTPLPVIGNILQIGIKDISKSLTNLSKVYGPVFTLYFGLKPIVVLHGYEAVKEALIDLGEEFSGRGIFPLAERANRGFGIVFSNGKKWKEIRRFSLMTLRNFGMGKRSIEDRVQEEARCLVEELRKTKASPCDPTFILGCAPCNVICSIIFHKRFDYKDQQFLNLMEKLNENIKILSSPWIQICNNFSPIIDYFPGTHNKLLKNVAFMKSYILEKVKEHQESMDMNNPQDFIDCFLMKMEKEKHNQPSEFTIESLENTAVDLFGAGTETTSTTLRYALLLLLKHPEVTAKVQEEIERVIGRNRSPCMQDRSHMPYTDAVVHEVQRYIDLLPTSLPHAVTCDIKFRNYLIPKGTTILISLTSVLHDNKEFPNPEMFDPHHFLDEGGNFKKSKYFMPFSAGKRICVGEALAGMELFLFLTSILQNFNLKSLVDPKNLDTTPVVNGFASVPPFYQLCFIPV
# Chain of Voltage-gated inwardly rectifying potassium channel KCNH2 (Q12809 whole entry): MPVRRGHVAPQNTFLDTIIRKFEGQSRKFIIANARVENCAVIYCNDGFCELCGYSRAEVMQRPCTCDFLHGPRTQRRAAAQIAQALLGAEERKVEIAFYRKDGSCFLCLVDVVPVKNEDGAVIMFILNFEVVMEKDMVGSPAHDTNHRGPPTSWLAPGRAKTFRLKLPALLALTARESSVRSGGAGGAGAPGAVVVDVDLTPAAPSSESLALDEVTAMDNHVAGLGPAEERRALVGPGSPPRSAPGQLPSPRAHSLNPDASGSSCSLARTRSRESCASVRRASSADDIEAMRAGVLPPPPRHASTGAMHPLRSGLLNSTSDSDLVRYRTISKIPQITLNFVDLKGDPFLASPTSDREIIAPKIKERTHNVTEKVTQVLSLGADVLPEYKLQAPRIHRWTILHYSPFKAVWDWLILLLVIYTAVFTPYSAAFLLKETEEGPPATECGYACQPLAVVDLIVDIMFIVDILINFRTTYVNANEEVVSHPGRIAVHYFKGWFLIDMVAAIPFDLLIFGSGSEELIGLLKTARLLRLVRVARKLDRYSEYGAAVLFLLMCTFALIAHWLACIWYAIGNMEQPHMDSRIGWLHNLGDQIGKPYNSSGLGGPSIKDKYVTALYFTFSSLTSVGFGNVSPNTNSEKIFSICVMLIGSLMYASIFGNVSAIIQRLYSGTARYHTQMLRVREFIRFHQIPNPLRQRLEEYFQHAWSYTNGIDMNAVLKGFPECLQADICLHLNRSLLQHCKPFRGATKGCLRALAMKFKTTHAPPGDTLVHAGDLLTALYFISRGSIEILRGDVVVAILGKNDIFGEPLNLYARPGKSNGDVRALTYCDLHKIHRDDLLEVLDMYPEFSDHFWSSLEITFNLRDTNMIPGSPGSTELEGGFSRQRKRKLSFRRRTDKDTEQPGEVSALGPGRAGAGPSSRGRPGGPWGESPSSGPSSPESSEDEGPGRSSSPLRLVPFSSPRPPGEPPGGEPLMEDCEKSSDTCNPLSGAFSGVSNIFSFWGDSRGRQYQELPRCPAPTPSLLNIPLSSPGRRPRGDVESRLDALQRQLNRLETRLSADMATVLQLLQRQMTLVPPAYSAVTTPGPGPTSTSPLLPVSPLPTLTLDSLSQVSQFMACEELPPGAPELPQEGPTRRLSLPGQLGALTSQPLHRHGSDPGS
# Chain of Cytochrome P450 2C19 (P33261 whole entry): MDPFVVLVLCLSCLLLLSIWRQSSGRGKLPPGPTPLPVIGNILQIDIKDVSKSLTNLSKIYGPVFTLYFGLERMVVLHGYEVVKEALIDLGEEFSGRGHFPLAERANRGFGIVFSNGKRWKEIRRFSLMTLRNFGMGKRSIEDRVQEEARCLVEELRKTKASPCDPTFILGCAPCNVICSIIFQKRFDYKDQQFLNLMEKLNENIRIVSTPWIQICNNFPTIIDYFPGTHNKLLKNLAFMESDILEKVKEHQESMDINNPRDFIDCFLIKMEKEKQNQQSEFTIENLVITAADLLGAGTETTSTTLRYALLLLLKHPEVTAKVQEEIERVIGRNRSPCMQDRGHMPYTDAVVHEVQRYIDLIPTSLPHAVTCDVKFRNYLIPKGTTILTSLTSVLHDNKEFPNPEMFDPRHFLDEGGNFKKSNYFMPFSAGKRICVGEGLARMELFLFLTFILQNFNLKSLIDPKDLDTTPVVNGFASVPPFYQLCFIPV
# Chain of Cytochrome P450 2D6 (P10635 whole entry): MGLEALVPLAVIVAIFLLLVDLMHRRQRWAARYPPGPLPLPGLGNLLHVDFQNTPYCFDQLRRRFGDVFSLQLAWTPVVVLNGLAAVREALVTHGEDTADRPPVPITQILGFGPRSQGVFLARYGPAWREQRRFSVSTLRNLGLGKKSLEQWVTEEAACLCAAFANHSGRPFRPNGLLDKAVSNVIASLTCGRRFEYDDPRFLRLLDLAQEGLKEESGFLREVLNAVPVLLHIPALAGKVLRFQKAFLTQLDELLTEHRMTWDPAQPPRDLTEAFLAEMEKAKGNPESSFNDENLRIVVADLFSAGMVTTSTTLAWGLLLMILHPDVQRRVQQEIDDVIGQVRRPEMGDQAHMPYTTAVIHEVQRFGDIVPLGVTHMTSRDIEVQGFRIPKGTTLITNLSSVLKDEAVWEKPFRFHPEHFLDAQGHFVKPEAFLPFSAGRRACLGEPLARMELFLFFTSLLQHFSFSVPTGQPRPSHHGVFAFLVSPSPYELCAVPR
# Chain of Cytochrome P450 3A4 (P08684 whole entry): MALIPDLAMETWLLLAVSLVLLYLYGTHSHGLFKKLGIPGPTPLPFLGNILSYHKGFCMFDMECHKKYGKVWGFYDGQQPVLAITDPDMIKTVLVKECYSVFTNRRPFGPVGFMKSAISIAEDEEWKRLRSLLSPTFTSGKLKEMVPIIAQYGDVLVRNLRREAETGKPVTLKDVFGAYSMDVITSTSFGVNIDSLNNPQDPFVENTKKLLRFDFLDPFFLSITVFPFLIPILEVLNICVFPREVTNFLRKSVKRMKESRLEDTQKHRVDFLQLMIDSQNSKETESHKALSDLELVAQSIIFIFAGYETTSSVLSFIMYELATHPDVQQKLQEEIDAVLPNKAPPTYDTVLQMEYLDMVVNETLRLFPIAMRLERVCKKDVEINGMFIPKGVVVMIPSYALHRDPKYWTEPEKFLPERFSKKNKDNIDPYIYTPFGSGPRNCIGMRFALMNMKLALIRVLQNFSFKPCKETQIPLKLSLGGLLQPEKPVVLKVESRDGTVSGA
compound,measurement,setting,value
CCC[C@@H](CCO)Nc1nc(N)nc2c1CN(C(=O)c1csc(C)n1)CC2,MEC,[1],1.5 µM
same,MEC,[2],0.2 µM
same,IC50,[3],22 µM
same,"metabolised at 0.25 h, 1 µM",[4],21%
same,Tmax,[5],30 min
same,Cmax,[6],29 ng/mL
same,Cmax,[7],711 ng/g
same,IC50,[8],> 10 µM
same,IC50,[9],> 10 µM
same,IC50,[10],> 10 µM
same,IC50,[11],> 10 µM
same,IC50,[12],> 10 µM
same,Cmax,[13],0 pg/g
same,Cmax,[14],75 pg/g
same,Activity,[15],> 10 µM

# From ChEMBL document CHEMBL4265889, “Design and synthesis of tetrahydropyridopyrimidine based Toll-Like Receptor (TLR) 7/8 dual agonists” (Bioorg Med Chem Lett, 2018)
